Experimental data from patent US9981912B2, “Cocrystal of lorcaserin, preparation methods, pharmaceutical compositions and uses thereof” (priority 2014, dated 2018).
Where a name gives a salt, the structure may show the parent alone.

How the values were obtained:
[1] = Solubility in pure water at 25° C. (Test Example 1)
[2] = disclosed in WO2006/069363A2; cited from earlier work
[3] = Storage stability at 25° C., 60% RH for 6 months; assay type: physicochemical

Row | Compound | solubility ([1]; in water, 25° C., listed as Lorcaserin hydrochloride hemihydrate (the known)) [mg/mL] | solubility ([1]; pure water, 25 °C, water, thermodynamic from solid) [mg/mL] | hygroscopicity [2] | stability among crystalline Forms I, II and III [2] | purity and crystalline form after storage [3]
1 | C[C@H]1CNCCc2ccc(Cl)cc21 [lorcaserin hydrochloride hemihydrate, (R)-8-chloro-1-methyl-2,3,4,5-tetrahydro-1H-3-benzazepine] | >200 | > 200 | poor hygroscopicity | the most stable form | 
2 | cocrystal of lorcaserin hydrochloride and benzoic acid [the cocrystal] |  |  |  |  | unchanged
